In the supplement of paper PMC10307832:

Assays:
Assay in all cases: relative viability (nuclei count vs DMSO), 5 days (fraction); higher = more cells survive
[1] = compound: CN1CCN(CC1)C2=CC(=C(C=C2)NC3=NC=C4C(=N3)N(C5=CC=CC=C5C(=O)N4C)C)OC [XMD8-85] + N=C(N)NC(=N)NCCc1ccccc1 [Phenformin] (partner 250 µM)
Procedure, shortened: (§1)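 Lung cancer cell lines were pin-tool dosed in 1536-well plates on the day after seeding, with either a lone drug or a fixed anchor-drug dose plus five library-drug doses (not always all listed) in √10 steps. Nuclei were counted on 4× images after 5 days. Relative viability is the ratio of treated-well to vehicle-well nuclei counts, with each value a median of duplicate plates.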

[2] = compound: CN1CCN(CC1)C2=CC(=C(C=C2)NC3=NC=C4C(=N3)N(C5=CC=CC=C5C(=O)N4C)C)OC [XMD8-85] + Cc1cc(Nc2cc(N3CCN(C)CC3)nc(Sc3ccc(NC(=O)C4CC4)cc3)n2)n[nH]1 [Tozasertib] (partner 0.1 µM)
Procedure, shortened: as §1

[3] = compound: O=C(O)C(Cc1ccccc1[N+](=O)[O-])=NNc1nc(-c2ccc(Cl)c(Cl)c2)cs1 (mixture of isomers) [4EGI-1] + CS(=O)(=O)CCNCc1ccc(-c2ccc3ncnc(Nc4ccc(OCc5cccc(F)c5)c(Cl)c4)c3c2)o1 [Lapatinib] (partner 2 µM)
Procedure, shortened: as §1

[4] = compound: O=C(O)C(Cc1ccccc1[N+](=O)[O-])=NNc1nc(-c2ccc(Cl)c(Cl)c2)cs1 (mixture of isomers) [4EGI-1] + CC(C)C[C@H](NC(=O)[C@H](Cc1ccccc1)NC(=O)c1cnccn1)B(O)O [Bortezomib] (partner 0.002 µM)
Procedure, shortened: as §1

Cell Line | relative viability ([1]; first compound 0.08 µM) | relative viability ([1]; first compound 0.253 µM) | relative viability ([1]; first compound 0.8 µM) | relative viability ([1]; first compound 2.53 µM) | relative viability ([1]; first compound 8 µM) | relative viability ([2]; first compound 0.08 µM) | relative viability ([2]; first compound 0.253 µM) | relative viability ([2]; first compound 0.8 µM) | relative viability ([2]; first compound 2.53 µM) | relative viability ([2]; first compound 8 µM) | relative viability ([3]; first compound 0.5 µM) | relative viability ([3]; first compound 1.581 µM) | relative viability ([3]; first compound 5 µM) | relative viability ([3]; first compound 15.81 µM) | relative viability ([3]; first compound 50 µM) | relative viability ([4]; first compound 0.5 µM) | relative viability ([4]; first compound 1.581 µM) | relative viability ([4]; first compound 5 µM) | relative viability ([4]; first compound 15.81 µM) | relative viability ([4]; first compound 50 µM)
NCI-H1915 | 0.359 | 0.349 | 0.377 | 0.354 | 0.348 | 0.434 | 0.404 | 0.494 | 0.389 | 0.296 | 0.99 | 0.747 | 0.954 | 1.03 | 0.679 | 1 | 0.693 | 1.09 | 1.01 | 0.687
SW 1573 | 0.466 | 0.37 | 0.392 | 0.389 | 0.306 | 0.222 | 0.197 | 0.175 | 0.174 | 0.156 | 1.33 | 0.86 | 1.17 | 0.898 | 1.17 | 1.4 | 1.06 | 0.972 | 0.948 | 0.822
NCI-H661 | 0.292 | 0.287 | 0.278 | 0.276 | 0.287 | 0.383 | 0.346 | 0.366 | 0.353 | 0.392 | 0.666 | 0.46 | 0.566 | 0.43 | 0.342 | 1.13 | 0.752 | 0.877 | 0.55 | 0.464
CAL-12T | 0.575 | 0.528 | 0.537 | 0.517 | 0.369 | 0.287 | 0.348 | 0.296 | 0.259 | 0.214 |  |  | 0.634 | 0.701 | 0.529 |  |  | 1.1 | 0.951 | 0.403
A-427 | 0.278 | 0.268 | 0.346 | 0.335 | 0.208 | 0.193 | 0.225 | 0.203 | 0.185 | 0.186 | 1.11 | 0.728 | 1.06 | 0.997 | 0.6 | 0.984 | 0.795 | 0.911 | 0.832 | 0.625
LCLC-97TM1 | 0.412 | 0.412 | 0.451 | 0.471 | 0.45 | 0.278 | 0.23 | 0.225 | 0.225 | 0.168 | 1.28 |  | 1.16 | 0.801 | 0.274 | 0.589 |  | 0.942 | 0.271 | 0.277
LU99A | 0.816 | 0.881 | 0.858 | 0.936 | 0.701 | 0.281 | 0.257 | 0.252 | 0.253 | 0.239 | 1.04 |  | 1.08 | 0.739 | 0.214 | 1.28 |  | 1.06 | 0.873 | 0.191
NCI-H1993 | 0.565 | 0.64 | 0.512 | 0.436 | 0.495 | 0.583 | 0.628 | 0.56 | 0.557 | 0.546 | 0.945 | 0.718 | 0.838 | 0.693 | 0.767 | 1.19 | 0.899 | 0.988 | 0.689 | 0.516
NCI-H1666 | 0.578 | 0.601 | 0.574 | 0.567 | 0.576 | 0.579 | 0.641 | 0.637 | 0.601 | 0.464 | 0.743 | 0.616 | 0.653 | 0.526 | 0.229 | 1.22 | 0.693 | 0.862 | 0.474 | 0.228
NCI-H2023 | 0.347 | 0.398 | 0.422 | 0.355 | 0.327 | 0.266 | 0.355 | 0.432 | 0.335 | 0.163 | 1.37 |  | 0.964 | 0.217 | 0.0883 | 1.53 |  | 1.23 | 0.309 | 0.101
NCI-H322M | 0.74 |  | 0.749 | 0.819 | 0.479 | 0.427 | 0.496 | 0.462 | 0.451 | 0.436 | 0.617 | 0.558 | 0.637 | 0.566 | 0.427 | 1.18 | 1.21 | 1.18 | 0.991 | 1.09
NCI-H838 | 0.528 | 0.553 | 0.604 | 0.617 | 0.283 | 0.291 | 0.305 | 0.267 | 0.25 | 0.165 | 1.24 |  | 1.16 | 0.654 | 0.173 | 0.865 |  | 0.82 | 0.612 | 0.167
